Results published in patent US20060252798A1, “Metal ion chelators and therapeutic use thereof” (priority 2003, published 2006).
Where “and” joins values, the source holds several entries; their conditions need not be identical. Identical values can stand only once. Like-named read-outs stand apart in the source and are kept apart here.

Columns and labels:
[1] = tested on: SK-N-MC neuroepithelioma cells; assay: 59Fe mobilization from prelabelled SK-N-MC neuroepithelioma cells; assay type: cell-based, human
Procedure: The effect of chelators on ^59Fe release from prelabelled cells was studied using standard procedures.^18 Cells were prelabelled with ^59Fe-transferrin (0.75 μM) for 3 h at 37° C. […] The overlying medium was then removed and placed into γ-counting tubes. The cells were removed from the petri dishes in 1 ml of BSS using a plastic spatula and transferred to a separate set of γ-counting tubes.
The ability of the compounds to mobilise ^59Fe from SK-N-MC neuroepithelioma cells was assessed after a 3 h labelling period with ^59Fe-Tf (0.75 μM) at 37° C. […]
DFO and 311 were used as internal standards.

[2] = tested on: SK-N-MC neuroepithelioma cells; assay: MTT cellular proliferation assay, SK-N-MC; assay type: cell-based, human
Procedure: […] […] After this incubation, 0.01 mL of MTT was added to each well and the plates incubated for 2 h at 37° C. The cells were then solubilised by adding 0.1 mL of 10% SDS-50% isobutanol in 0.01 M HCl and the plates then read at 570 nm on a scanning multiwell spectrophotometer (Titertek Multiscan; Beckman Instruments Inc, California). MTT colour formation was directly proportional to the number of viable cells.
The effect of the compounds on the proliferation of SK-N-MC neuroepithelioma cells was examined using the MTT assay (described above).
(§1) Dp2mT served as a negative control.

[3] = tested on: SK-N-MC neuroepithelioma cells; assay: 3H-thymidine incorporation by SK-N-MC cells; assay type: cell-based, human; conditions: 20 h incubation then 2 h label; Mean ± SD, 4 experiments
Procedure: (§2) After a 20 h incubation of the SK-N-MC cells with a selection of analogues, ^3H-thymidine, ^3H-leucine, or ^3H-uridine (1 μCi/ml) was added for 2 h at 37° C. The cells were detached from the 96 well plate using 1 mM EDTA in Ca(II)/Mg(II)-free PBS and collected and washed using a cell harvester (Tomtec Harvester 96, Linbrook, Queensland, Australia). Radioactivity was measured on a P-scintillation counter (LKB Wallace, Turku, Finland).

[4] = tested on: SK-N-MC neuroepithelioma cells; assay: 3H-leucine incorporation by SK-N-MC cells; assay type: cell-based, human; conditions: 20 h incubation then 2 h label; Mean ± SD, 4 experiments
Procedure: as §2

[5] = tested on: SK-N-MC neuroepithelioma cells; assay: 3H-uridine incorporation by SK-N-MC cells; assay type: cell-based, human; conditions: 20 h incubation then 2 h label; Mean ± SD, 3 experiments
Procedure: as §2

MRC-5 fibroblasts = assay: MTT cellular proliferation assay, MRC-5 fibroblasts; assay type: cell-based, human
Procedure: (§3) The final concentration of the compounds was 0.39-50 μM. […] […] After this incubation, 0.01 mL of MTT was added to each well and the plates incubated for 2 h at 37° C. The cells were then solubilised by adding 0.1 mL of 10% SDS-50% isobutanol in 0.01 M HCl and the plates then read at 570 nm on a scanning multiwell spectrophotometer (Titertek Multiscan; Beckman Instruments Inc, California). MTT colour formation was directly proportional to the number of viable cells.
The MRC-5 cell type is a normal human lung fibroblast cell strain that is mortal and senesces after a number of passages in vitro. The SK-N-MC neuroepithelioma cell type is immortal.
as §1

SK-Mel-28 melanoma cells = assay: MTT cellular proliferation assay, SK-Mel-28; assay type: cell-based, human
Procedure: as §3, §1
(§4) Dp2mT served as a negative control as the methyl group at the 2-position hinders Fe-chelation.

[6] = tested on: MCF-7 breast cancer cells; assay: MTT cellular proliferation assay, MCF-7; assay type: cell-based, human
Procedure: […] […] […] After this incubation, 0.01 mL of MTT was added to each well and the plates incubated for 2 h at 37° C. The cells were then solubilised by adding 0.1 mL of 10% SDS-50% isobutanol in 0.01 M HCl and the plates then read at 570 nm on a scanning multiwell spectrophotometer (Titertek Multiscan; Beckman Instruments Inc, California). MTT colour formation was directly proportional to the number of viable cells.
as §1, §4

H69AR lung cancer = assay: MTT cellular proliferation assay, H69AR; assay type: cell-based; conditions: Homo sapiens, H69AR, 0-50 μM, 72 h, 1 experiment
Procedure: as §3
(§5) At the end of the incubation period, cell density was determined by the MTT assay (described above).

IMR-32 Neuroblastoma = assay: MTT cellular proliferation assay, IMR-32; assay type: cell-based; conditions: Homo sapiens, IMR-32, 0-50 μM, 72 h, 1 experiment
Procedure: as §3, §5

HEP G2 Hepatoma = assay: MTT cellular proliferation assay, HEP G2; assay type: cell-based; conditions: Homo sapiens, HepG2, 0-50 μM, 72 h, 1 experiment
Procedure: as §3, §5

DU 145 prostate cancer = assay: MTT cellular proliferation assay, DU 145; assay type: cell-based; conditions: Homo sapiens, DU-145, 0-50 μM, 72 h, 2 experiments
Procedure: as §3, §5

NCI H2452 mesothelioma = assay: MTT cellular proliferation assay, NCI H2452; assay type: cell-based; conditions: Homo sapiens, NCI-H2452, 0-50 μM, 72 h, 3 experiments
Procedure: as §3, §5

[7] = tested on: SK-N-MC neuroepithelioma cells; assay: 59Fe uptake from 59Fe-transferrin by SK-N-MC neuroepithelioma cells; assay type: cell-based, human
Procedure: The cells were then placed on ice and washed four times with ice-cold Hank's balanced salt solution (BSS) to remove non-specifically bound ^59Fe-Tf. Cells were then incubated with the general protease, pronase (1 mg/ml), for 30 min at 4° C. to remove membrane-bound ^59Fe and Tf.
PCTH was used as an internal control.

Ndrg1 = Ndrg1 expression in MCF-7 cells (Western blotting); assay type: cell-based, human; conditions: 25 μM, 24 h, MCF-7 cells (FIG. 16)
Procedure: FIG. 16. […] The expression of Ndrg1 and β-actin protein levels were assessed by Western blotting.
MCF-7 cells were incubated for 24 h with a range of metal ion chelators. […] Dp2mT was used as a negative control, […]

GADD45 and WAF1 mRNA = assay: Northern blot of WAF1 and GADD45 mRNA expression in SK-N-MC cells; assay type: cell-based, human; conditions: DFO 100 μM, other chelators 25 μM, 20 h at 37° C. (FIG. 7)
Procedure: FIG. 7. […] Northern blotting was performed using standard procedures (see Example 6).
Northern blot analysis was performed by isolating total RNA using the Total RNA Isolation Reagent (Advanced Biotechnologies Ltd, Surrey, United Kingdom). The membranes were hybridised with probes specific for human WAF1, GADD45, and β-actin. The WAF1 probe consisted of a 1 kb fragment from pSXV (ATCC; Cat. No. 79928). The GADD45 probe consisted of a 760 bp fragment from human GADD45 cDNA cloned into pHu145B2 (kindly supplied by Dr. Albert Fornace, National Cancer Institute, NIH, Maryland). The β-actin probe consisted of a 1.4 kb fragment from human β-actin cDNA cloned into pBluescript SK− (ATCC; Cat. No. 37997).

[8] = Table 2, MTT assay, 90 h incubation, Mean ± SD, 4 experiments, read-out: IC50 Values of Chelators
[9] = Table 3, 0-25 μM, 72 h, MTT, mean ± SD, read-out: IC50 SK-N-MC neuroepithelioma
[10] = Table 3, normal cells, 72 h, MTT, read-out: IC50 MRC-5 fibroblasts
[11] = Table 3, 72 h, MTT, mean ± SD, read-out: IC50 MCF-7 breast cancer
[12] = Homo sapiens, MCF7, values given in Example 8 text, read-out: IC50, anti-proliferative activity in MCF-7 cells
[13] = Homo sapiens, MRC5, Example 4c, FIG. 6, read-out: IC50 values in fibroblasts
[14] = Homo sapiens, SK-N-MC, 90 h, Table 2, MTT assay, 90 h incubation, Mean ± SD, 4 experiments, read-out: IC50 Values of Chelators

Compound: 2-pyridylketone 2-thiophenecarboxaldehyde hydrazone [PCTH]
- cellular 59Fe released ([1]; chelator 1 μM, 3 h reincubation at 37° C. (FIG. 5A)): 10%
- IC50 [2, 8]: 48 ± 4 µM
- 3H-Thymidine Incorporation [3]: 64 ± 14 % Control
- 3H-Leucine Incorporation [4]: 21 ± 6 % Control
- 3H-Uridine Incorporation [5]: 43 ± 2 % Control

Compound: 2-quinolinecarboxaldehyde 2-thiophenecarboxaldehyde hydrazone [QCTH]
- IC50 [2, 8]: > 50 µM
- 3H-Thymidine Incorporation [3]: 83 ± 6 % Control

Compound: O=C(NN=Cc1c(O)ccc2ccccc12)c1cccnc1 [311m, 2-hydroxy-1-naphthylaldehyde nicotinoyl hydrazone]
- IC50 [2, 9]: 0.8 ± 0.2 µM
- IC50 (MRC-5 fibroblasts; [10]): > 25 µM
- IC50 (SK-Mel-28 melanoma cells; Table 3, 72 h, mean ± SD): 1.4 ± 0.4 µM
- IC50 [6, 11]: 0.9 ± 0.4 µM

Compound: COc1cccc2c1C(=O)c1c(O)c3c(c(O)c1C2=O)C[C@@](O)(C(=O)CO)C[C@@H]3O[C@H]1C[C@H](N)[C@H](O)[C@H](C)O1 [Dox, doxorubicin]
- IC50 ([2]; Homo sapiens, SK-N-MC, 72 h, Table 3, 0-25 μM, 72 h, MTT, mean ± SD, read-out: IC50 SK-N-MC neuroepithelioma): 0.02 µM
- IC50 (SK-Mel-28 melanoma cells; Homo sapiens, SK-MEL-28, 72 h, Table 3, mean ± SD): 0.35 ± 0.09 µM
- IC50 ([6]; Homo sapiens, MCF7, 72 h, Table 3, 72 h, MTT, mean ± SD, read-out: IC50 MCF-7 breast cancer): 0.6 ± 0.2 µM
- IC50 (H69AR lung cancer): 0.39 µM
- IC50 (IMR-32 Neuroblastoma): 0.01 µM
- IC50 (HEP G2 Hepatoma): 2.61 µM
- IC50 (DU 145 prostate cancer): 0.09 µM
- IC50 (NCI H2452 mesothelioma): 0.17 µM

Compound: CN(N=C(c1ccccn1)c1ccccn1)C(N)=S [Dp2mT, di-2-pyridylketone 2-methyl-3-thiosemicarbazone]
- prevention of 59Fe uptake from 59Fe-Tf ([7]; 25 μM, 3 h at 37° C. (FIG. 11B)): little effect
- IC50 [2, 9]: > 25 µM
- IC50 (MRC-5 fibroblasts; [10]): > 25 µM
- IC50 (SK-Mel-28 melanoma cells; Table 3, 72 h, mean ± SD): > 25 µM
- IC50 [6, 11]: > 25 µM
- up-regulation of Ndrg1 (Ndrg1): no effect

Compound: O=C(O)CN(CCN(CC(=O)O)CC(=O)O)CC(=O)O [EDTA, ethylenediamine tetraacetic acid]
- IC50 [6, 12]: > 250 µM
- up-regulation of Ndrg1 (Ndrg1): no effect

Compound: Cc1c(O)c(=O)ccn1C [L1, deferiprone]
- IC50 [6, 12]: 180 µM
- up-regulation of Ndrg1 (Ndrg1): no effect

Compound: O=C(NN=C(c1ccccn1)c1ccccn1)c1cccc(Br)c1 [PCBBH, 2-pyridylketone 3-bromobenzoyl hydrazone]
- IC50 [2, 8]: 40 ± 12 µM
- GADD45 and WAF1 mRNA expression (GADD45 and WAF1 mRNA): up-regulation

Compound: O=C(NN=C(c1ccccn1)c1ccccn1)c1ccccc1 [PCBH, 2-pyridylketone benzoyl hydrazone]
- IC50 [2, 8]: 46 ± 7 µM
- 3H-Thymidine Incorporation [3]: 72 ± 16 % Control
- 3H-Leucine Incorporation [4]: 30 ± 13 % Control
- 3H-Uridine Incorporation [5]: 31 ± 9 % Control
- GADD45 and WAF1 mRNA expression (GADD45 and WAF1 mRNA): little effect

Compound: O=C(NN=C(c1ccccn1)c1ccccn1)c1cccc(Br)c1 [PKBBH, di-2-pyridylketone 3-bromobenzoyl hydrazone]
- IC50 [2, 8]: 1 ± 1 µM
- IC50 (MRC-5 fibroblasts; [13]): 8 µM
- 3H-Thymidine Incorporation [3]: 0.02 % Control and 0.02 ± 0.01 % Control
- 3H-Leucine Incorporation [4]: 8 ± 1 % Control
- 3H-Uridine Incorporation [5]: 3 ± 1 % Control
- GADD45 and WAF1 mRNA expression (GADD45 and WAF1 mRNA): pronounced effect

Compound: O=C(NN=C(c1ccccn1)c1ccccn1)c1ccccc1 [PKBH, di-2-pyridylketone benzoyl hydrazone]
- 59Fe mobilisation as a function of concentration ([1]; 0.5-50 μM, 3 h, PCTH internal control (FIG. 5A)): more effective than PCTH
- prevention of 59Fe uptake as a function of concentration ([7]; 0.5-50 μM, 3 h, PCTH internal control (FIG. 5B)): higher efficacy than the control PCTH
- IC50 [2, 8]: 3 ± 1 µM
- IC50 (MRC-5 fibroblasts; [13]): 11 µM
- 3H-Thymidine Incorporation [3]: 0.03 ± 0.01 % Control
- 3H-Leucine Incorporation [4]: 21 ± 2 % Control
- 3H-Uridine Incorporation [5]: 5 ± 1 % Control
- GADD45 and WAF1 mRNA expression (GADD45 and WAF1 mRNA): pronounced effect

Compound: Nc1ccc(C(=O)NN=Cc2ccc3ccccc3n2)cc1 [QCAH, 2-quinolinecarboxaldehyde 4-aminobenzoyl hydrazone]
- IC50 [2, 14]: > 50 µM
- 3H-Thymidine Incorporation [3]: 43 ± 2 % Control

Compound: O=C(NN=Cc1ccc2ccccc2n1)c1cccc(Br)c1 [QCBBH, 2-quinolinecarboxaldehyde 3-bromobenzoyl hydrazone]
- IC50 [2, 14]: 49 ± 3 µM
- 3H-Thymidine Incorporation [3]: 81 ± 10 % Control

Compound: O=C(NN=Cc1ccc2ccccc2n1)c1ccccc1 [QCBH, 2-quinolinecarboxaldehyde benzoyl hydrazone]
- IC50 [2, 14]: 50 ± 1 µM
- 3H-Thymidine Incorporation [3]: 64 ± 5 % Control

Compound: O=C(NN=Cc1ccc2ccccc2n1)c1ccc(O)cc1 [QCHH, 2-quinolinecarboxaldehyde 4-hydroxybenzoyl hydrazone]
- IC50 [2, 14]: > 50 µM
- 3H-Thymidine Incorporation [3]: 41 ± 2 % Control

Compound: O=C(NN=Cc1ccc2ccccc2n1)c1ccncc1 [QCIH, 2-quinolinecarboxaldehyde isonicotinoyl hydrazone]
- 59Fe mobilisation from prelabelled cells ([1]; DFO 100 μM, other chelators 50 μM, 3 h (FIG. 3)): comparable cellular ^59Fe mobilisation to PCIH
- IC50 [2, 14]: 49 ± 3 µM
- 3H-Thymidine Incorporation [3]: 77 ± 9.5 % Control

Compound: c1ccc(-c2ccccn2)nc1 [dipyridyl]
- IC50 ([6]; Homo sapiens, MCF7, read-out: IC50, anti-proliferative activity in MCF-7 cells): > 250 µM
- up-regulation of Ndrg1 (Ndrg1): no effect

Compound: CC(C)(S)[C@@H](N)C(=O)O [penicillamine]
- up-regulation of Ndrg1 (Ndrg1): no effect
